Here are results for 19 compounds from ChEMBL document CHEMBL4196244, “Matrine-Type Alkaloids from the Roots of Sophora flavescens and Their Antiviral Activities against the Hepatitis B Virus” (J Nat Prod, 2018).

Activity calls are given as the source filed them. No cut-off for these calls is given here.

Data set [1] relates to Hepatitis B virus. As to the kind of experiment: Antiviral activity against HBV infected in human HepG2.2.15 cells assessed as inhibition of HBeAg secretion at 0.2 mM supplemented with fresh medium containing compound every 3 days for 9 days measured after 9 days by ELISA relative to control. It counts as functional. A general note: An ELISA detects its analyte on a solid surface through an enzyme-linked reagent.

A short description of data set [2]: Cytotoxicity against human HepG2.2.15 cells assessed as growth inhibition at 0.4 mM by MTT assay relative to control. It counts as cell-based, HepG2 2.2.15. The settings on record: read-out: GI.
Data set [3] has as its system Hepatitis B virus. The experiment in a line: Antiviral activity against HBV infected in human HepG2.2.15 cells assessed as inhibition of HBsAg secretion at 0.2 mM supplemented with fresh medium containing compound every 3 days for 9 days measured after 9 days by ELISA relative to control. It counts as functional.
The nature of data set [4]: Cytotoxicity against human HepG2.2.15 cells assessed as growth inhibition at 0.8 mM by MTT assay relative to control. The settings on record: read-out: GI. It counts as cell-based, HepG2 2.2.15.
The test system of data set [5] is Hepatitis B virus. As to the kind of experiment: Antiviral activity against HBV infected in human HepG2.2.15 cells assessed as inhibition of HBeAg secretion at 0.4 mM supplemented with fresh medium containing compound every 3 days for 9 days measured after 9 days by ELISA relative to control. It counts as functional.
Data set [6] has as its system Hepatitis B virus. The experiment in a line: Antiviral activity against HBV infected in human HepG2.2.15 cells assessed as inhibition of HBsAg secretion at 0.4 mM supplemented with fresh medium containing compound every 3 days for 9 days measured after 9 days by ELISA relative to control. It counts as functional.
Data set [7] relates to Hepatitis B virus. The experiment in a line: Antiviral activity against HBV infected in human HepG2.2.15 cells assessed as inhibition of HBeAg secretion at 0.8 mM supplemented with fresh medium containing compound every 3 days for 9 days measured after 9 days by ELISA relative to control. It counts as functional.
Data set [8] in a line: Cytotoxicity against human HepG2.2.15 cells assessed as growth inhibition at 1 mM by MTT assay relative to control. The following applies: read-out: GI. It counts as cell-based, HepG2 2.2.15.
The subject of data set [9] is Hepatitis B virus. The experiment in a line: Antiviral activity against HBV infected in human HepG2.2.15 cells assessed as inhibition of HBsAg secretion at 0.8 mM supplemented with fresh medium containing compound every 3 days for 9 days measured after 9 days by ELISA relative to control. It counts as functional.
The test system of data set [10] is Hepatitis B virus. As to the kind of experiment: Antiviral activity against HBV infected in human HepG2.2.15 cells assessed as inhibition of HBsAg secretion at 1 mM supplemented with fresh medium containing compound every 3 days for 9 days measured after 9 days by ELISA relative to control. It counts as functional.
Data set [11] deals with Hepatitis B virus. The experiment in a line: Antiviral activity against HBV infected in human HepG2.2.15 cells assessed as inhibition of HBeAg secretion at 1 mM supplemented with fresh medium containing compound every 3 days for 9 days measured after 9 days by ELISA relative to control. It counts as functional.

For the compound `O=C1CC[C@H]2C3=C(CCCN13)CN1C(=O)CCC[C@H]21`, the entries for the “inhibition (INH)” value with Hepatitis B virus [1] and in the data set on Hepatitis B virus [3] were 38.8% and 33%, respectively. In [2], the inhibition at 400 µM was at least 25%.
For the compound `O=C1CCCC2=C3CCCN4CCC[C@@H](CN12)[C@@H]34`, the inhibition at 800 µM in data set [4] was at least 25%. Also, the “inhibition (INH)” value amounted to 29.9% in the data set on Hepatitis B virus [5] and 22.4% in the data set on Hepatitis B virus [6].
Take `O=C1CCC[C@@H]2[C@H]3CCCN4CCC[C@@](O)(CN12)[C@@H]34`: the “inhibition (INH)” value is recorded as 28.4% with Hepatitis B virus [1] and 33.8% in the data set with Hepatitis B virus [3]. In addition, in data set [2], the inhibition at 400 µM is at least 25%.
As to `O=C1CCC[C@@H]2[C@H]3CCCN4CCC[C@H](CN12)[C@@H]34` [SOPHORIDINE], the inhibition at 800 µM in [4] was at least 25%. Further, the “inhibition (INH)” value was 21.9% in the data set on Hepatitis B virus [5] and 40.2% in the data set with Hepatitis B virus [6].
The corresponding values for `O=C1CCCN2CCC[C@](O)(C2=O)[C@H]2CCCC(=O)N2C1` are at least 25%, 40.4% and 46%.
As for `O=C1CCC[C@@H]2[C@H]3CCCN4CCC[C@@H](CN12)[C@@H]34` [MATRINE], the inhibition at 800 µM in data set [4] is at least 25%. In addition, the “inhibition (INH)” value with Hepatitis B virus [5] is reported as 16.8%; in the data set with Hepatitis B virus [6] it was 34.7%.
The corresponding values for `O=C1CC[C@H]2[C@@H]3[C@H](CCCN13)CN1C(=O)CCC[C@H]21` are at least 25%, 18.3% and 32.5%.
Consider `O=C1CCCN2CCC[C@](O)(CN3C(=O)CCC[C@H]13)C2=O`, for which the inhibition at 800 µM in data set [4] is at least 25%. Moreover, the inhibition entry with Hepatitis B virus [5] is “inactive”. For the same compound, the “inhibition (INH)” value in the data set with Hepatitis B virus [6] is 14.1%.
For `O=C1CCCC2=C3CCC[N+]4([O-])CCC[C@@H](CN12)[C@@H]34` (stereo partly specified), the “inhibition (INH)” value was 22.6% in the data set with Hepatitis B virus [7] and 25.4% in the data set on Hepatitis B virus [9]. In data set [8], the inhibition at 1000 µM was at least 25%.
Consider `O=C(O)CCCc1ncc2c3c1CCCN3CCC2`, for which the inhibition at 800 µM in data set [4] is at least 25%. Also, the “inhibition (INH)” value with Hepatitis B virus [5] is 33.2%; with Hepatitis B virus [6], 37.2%.
The corresponding values for `O=C1CCC[C@@H]2[C@H]3CCC[N+]4([O-])CCC[C@@H](CN12)[C@@H]34` (stereo partly specified) [OXYMATRINE] are at least 25%, 20.3% and 38.3%.
As to `O=C1CCC[C@@H]2[C@H]3CCCN4CCC[C@@H](CN12)[C@H]34`, the inhibition at 800 µM in data set [4] is at least 25%. Moreover, the “inhibition (INH)” value turned out to be 17.7% in the data set on Hepatitis B virus [5] and 26.3% in the data set on Hepatitis B virus [6].
On to `O=C1CCC[C@@H]2[C@H]3CCCN4CCC[C@H](CN12)[C@H]34`, for which the inhibition at 800 µM in data set [4] is at least 25%. Also, in the data set on Hepatitis B virus [5], the inhibition entry was “inactive”. In the data set with Hepatitis B virus [6], the “inhibition (INH)” value was determined as 13.8%.
Regarding `O=c1cccc2n1C[C@@H]1CCCN3CCC[C@H]2[C@H]13`, the “inhibition (INH)” value in the data set on Hepatitis B virus [7] was determined as 13.5%; in the data set on Hepatitis B virus [9], 29.5%. In addition, the inhibition at 1000 µM in data set [8] was at least 25%.
Regarding `Nc1ccn([C@@H]2CS[C@H](CO)O2)c(=O)n1` [LAMIVUDINE], the “inhibition (INH)” value in the data set on Hepatitis B virus [10] was 31.5 - 32.6%; in the data set with Hepatitis B virus [11], 37.5%.
Regarding `O=C1[C@@H](O)CC[C@@H]2[C@H]3CCCN4CCC[C@@H](CN12)[C@@H]34`, in data set [4], the inhibition at 800 µM was at least 25%. Moreover, the “inhibition (INH)” value in the data set on Hepatitis B virus [5] was 18.5%; in the data set on Hepatitis B virus [6], 33.2%.
The corresponding values for `O=C(O)CCC[C@@H]1N=CC2=C3[C@H]1CCCN3CCC2` are at least 25%, 16.8% and 30.8%.
The corresponding values for `O=C(O)CCCC1=NCC2CCCN3CCCC1=C23` (racemic) are at least 25%, 15.1% and 29.8%.
Take `O=C(CCCc1ncc2c3c1CCCN3CCC2)N1CCCCC1`: the “inhibition (INH)” value in the data set on Hepatitis B virus [1] worked out at 38%; with Hepatitis B virus [3], 44.3%. The inhibition at 400 µM in [2] is at least 25%.
